Assay results reported in the supplement of paper PMC10307832.

How the values were obtained:
Assay in all cases: relative viability (nuclei count vs DMSO), 5 days (fraction); higher = more cells survive
[1] = compound: CS(=O)(=O)c1ccc(-c2cnc(N)c(C(=O)Nc3ccccc3)n2)cc1 [VE-821] + CS(=O)(=O)N1CCN(Cc2cc3nc(-c4cccc5[nH]ncc45)nc(N4CCOCC4)c3s2)CC1 [Pictilisib] (partner 1 µM)
Method in brief: (§1)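 Each reported value is a median over duplicate plates. It expresses relative viability: treated-well nuclei count divided by vehicle-well nuclei count. Lung cancer cell lines in 1536-well plates were dosed by pin tool a day after seeding, alone with one drug or with a fixed anchor-drug dose plus five library-drug doses (not always all listed) in √10 steps, and nuclei were counted after 5 days.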

[2] = compound: CS(=O)(=O)c1ccc(-c2cnc(N)c(C(=O)Nc3ccccc3)n2)cc1 [VE-821] + CS(=O)(=O)CCNCc1ccc(-c2ccc3ncnc(Nc4ccc(OCc5cccc(F)c5)c(Cl)c4)c3c2)o1 [Lapatinib] (partner 2 µM)
Method in brief: as §1

[3] = compound: N#CC[C@H](C1CCCC1)n1cc(-c2ncnc3[nH]ccc23)cn1 [Ruxolitinib] + Nc1ncn([C@H]2C[C@H](O)[C@@H](CO)O2)c(=O)n1 [Decitabine] (partner 2 µM)
Method in brief: as §1

[4] = compound: N#CC[C@H](C1CCCC1)n1cc(-c2ncnc3[nH]ccc23)cn1 [Ruxolitinib] + CS(=O)(=O)N1CCN(Cc2cc3nc(-c4cccc5[nH]ncc45)nc(N4CCOCC4)c3s2)CC1 [Pictilisib] (partner 1 µM)
Method in brief: as §1

| Cell Line | relative viability ([1]; first compound 0.08 µM) | relative viability ([1]; first compound 0.253 µM) | relative viability ([1]; first compound 0.8 µM) | relative viability ([1]; first compound 2.53 µM) | relative viability ([1]; first compound 8 µM) | relative viability ([2]; first compound 0.08 µM) | relative viability ([2]; first compound 0.253 µM) | relative viability ([2]; first compound 0.8 µM) | relative viability ([2]; first compound 2.53 µM) | relative viability ([2]; first compound 8 µM) | relative viability ([3]; first compound 0.08 µM) | relative viability ([3]; first compound 0.253 µM) | relative viability ([3]; first compound 0.8 µM) | relative viability ([3]; first compound 2.53 µM) | relative viability ([3]; first compound 8 µM) | relative viability ([4]; first compound 0.08 µM) | relative viability ([4]; first compound 0.253 µM) | relative viability ([4]; first compound 0.8 µM) | relative viability ([4]; first compound 2.53 µM) | relative viability ([4]; first compound 8 µM) |
| --- | --- | --- | --- | --- | --- | --- | --- | --- | --- | --- | --- | --- | --- | --- | --- | --- | --- | --- | --- | --- |
| HCC-44 | 1.86 | 0.468 | 0.701 | 0.708 | 0.79 | 1.04 | 1.07 | 1.07 | 1.09 | 1.08 | 0.931 | 0.971 | 0.895 | 0.877 | 0.83 | 0.594 | 0.649 | 0.686 | 0.463 | 0.307 |
| HCC-78 | 0.207 | 0.237 | 0.229 | 0.22 | 0.206 | 1.06 | 0.795 | 0.371 | 1.03 | 0.255 | 0.598 | 0.607 | 0.677 | 0.527 | 0.661 | 0.162 | 0.14 | 0.207 | 0.255 | 0.216 |
| HCC-366 | 0.152 | 0.252 | 0.0721 | 0.127 | 0.101 | 1.1 | 1.03 | 0.883 | 0.406 | 0.064 | 0.361 | 0.321 | 0.318 | 0.24 | 0.275 | 0.154 | 0.134 | 0.161 | 0.094 | 0.101 |
| HCC-827 | 1.1 | 1.03 | 1.19 | 1.24 | 1.19 | 0.221 | 0.201 | 0.189 | 0.201 | 0.209 | – | 0.325 | 0.364 | 0.253 | 0.305 | 0.654 | 0.973 | 0.919 | 0.906 | 0.944 |
| HOP-62 | 0.689 | 0.785 | 0.807 | 0.944 | 0.516 | 1.16 | 1.03 | 0.958 | 1.06 | 0.947 | 0.197 | 0.258 | 0.227 | 0.208 | 0.19 | – | 0.743 | 0.876 | 0.63 | 0.839 |
| IA-LM | 0.412 | 0.341 | 0.443 | 0.749 | 0.551 | 1.03 | 0.744 | 0.821 | 0.83 | 0.501 | – | – | – | – | – | 0.349 | 0.35 | 0.387 | 0.544 | 0.46 |
| LC-2-ad | 0.704 | 0.392 | 0.545 | 0.514 | 0.373 | 1.06 | 1.01 | 1.08 | 1.07 | 0.963 | 0.776 | 0.936 | 0.784 | 0.694 | 0.604 | 0.41 | 0.313 | 0.519 | 0.362 | 0.211 |
| LCLC-97TM1 | 0.178 | 0.203 | 0.229 | 0.224 | 0.137 | 0.75 | 0.716 | 0.669 | 0.848 | 0.393 | 0.221 | 0.242 | 0.22 | 0.265 | 0.222 | 0.182 | 0.153 | 0.214 | 0.158 | 0.198 |
| LCLC-103H | 0.572 | 0.51 | 0.663 | 0.75 | 0.494 | – | – | – | – | – | 0.83 | 0.775 | 0.802 | 0.656 | 0.658 | 0.58 | 0.597 | 0.592 | 0.524 | 0.597 |
| LK-2 | 0.709 | 0.59 | 0.601 | 0.595 | 0.606 | 1.18 | 0.891 | 0.891 | 0.906 | 0.874 | 0.228 | 0.237 | 0.35 | 0.308 | 0.273 | – | 0.595 | 0.61 | 0.741 | 0.673 |
| LOU-NH91 | 0.527 | 0.506 | 0.496 | 0.524 | 0.525 | 0.758 | 0.821 | 0.764 | 0.697 | 0.655 | 0.684 | 0.813 | 0.829 | 0.782 | 0.798 | 0.477 | 0.493 | 0.524 | 0.514 | 0.56 |
| LU99A | 0.362 | 0.311 | 0.29 | 0.319 | 0.253 | 1.06 | 1.11 | 1.04 | 0.85 | 0.448 | 0.918 | 0.938 | 0.886 | 0.639 | 0.836 | 0.321 | 0.315 | 0.401 | 0.339 | 0.316 |
| NCI-H441 | 0.56 | 0.527 | 0.537 | 0.519 | 0.352 | – | – | – | – | – | 0.244 | 0.238 | 0.21 | 0.16 | 0.26 | 0.44 | 0.497 | 0.533 | 0.445 | 0.39 |
| NCI-H522 | – | – | – | – | – | – | – | – | – | – | 0.694 | 0.695 | 0.669 | 0.701 | 0.654 | – | – | – | – | – |
| NCI-H1299 | 0.769 | 0.606 | 0.689 | 0.771 | 0.357 | 0.948 | 0.885 | 0.915 | 0.913 | 0.771 | – | – | – | – | – | 0.773 | 0.761 | 0.883 | 0.716 | 0.504 |
| NCI-H1563 | 0.581 | 0.613 | 0.648 | 0.663 | 0.731 | 0.92 | 0.981 | 0.812 | 0.912 | 0.792 | – | – | – | – | – | 0.653 | 0.669 | 0.691 | 0.623 | 0.661 |
| NCI-H1648 | – | – | – | – | – | – | – | – | – | – | 0.472 | 0.558 | 0.588 | 0.592 | 0.861 | – | – | – | – | – |
| NCI-H1703 | 0.241 | 0.233 | 0.25 | 0.227 | 0.192 | 1.21 | 1 | 1.06 | 0.547 | 0.328 | – | – | – | – | – | 0.255 | 0.265 | 0.232 | 0.24 | 0.205 |
| NCI-H2228 | 0.401 | 0.414 | 0.585 | 0.566 | 0.358 | 1.18 | 1.23 | 1.14 | 1.04 | 0.37 | – | – | – | – | – | 0.584 | 0.362 | 0.365 | 0.255 | 0.246 |
| NCI-H2342 | – | – | – | – | – | – | – | – | – | – | 0.706 | 0.665 | 0.777 | 0.783 | 0.667 | – | – | – | – | – |
| SW 900 | – | – | – | – | – | – | – | – | – | – | 0.426 | 0.495 | 0.475 | 0.445 | 0.41 | – | – | – | – | – |
